Consider 40 molecules from ChEMBL document CHEMBL3301361, “Experimental in vitro DMPK and physicochemical data on a set of publicly disclosed compounds”.

≈ marks a conversion by molar mass, not a printed value.

Series [1] in a line: physchem. The following applies: pH 7.4 buffer.
Series [2] is described as follows: in vitro. The following applies: human, hepatocytes.
Series [3] can be described thus: physchem. The conditions noted are these: octan-1-ol/water.
Series [4] can be described thus: in vitro. The conditions noted are these: human.
A short description of series [5]: in vitro. The following applies: human, plasma.
The nature of series [6]: in vitro. The following applies: SD, HW or BN, rat, plasma.

A word on the thermodynamic solubility: it is the concentration in solution at equilibrium with solid. Broadly, the hepatocyte CLint is the capacity of the preparation to metabolise the compound, expressed as a volume cleared per time. On to `COc1cc(C2CCN(C(C)=O)CC2)ccc1Nc1ncc(Cl)c(-c2cnc3ccccn23)n1`, for which the thermodynamic solubility in the series “physchem [1]” was found to be 2.2 µM (≈ 1.05 µg/mL). Besides, in “in vitro [2]”, the hepatocyte CLint was 24 µL/min/1e6 cells.
A word on the logD: it is the decadic logarithm of the distribution of all forms, ionised or not, between an organic phase and buffer at a given pH. A high value points to higher lipophilicity. In the case of `CC(C)C[C@H](CO)Nc1nc(SCc2ccccc2)nc2[nH]c(=O)sc12`, the hepatocyte CLint in “in vitro [2]” amounted to 13.5 µL/min/1e6 cells. The molecule further showed a logD in “physchem [3]” (pH 7.4, LogD7.4) of 4.2.
By microsomal CLint is commonly meant the rate of metabolic loss divided by the concentration. A high value points to rapid turnover. What is called fraction unbound is the share of the substance not bound to proteins or other matrix. On to `CC[C@H](CO)Nc1nc(SCc2cccc(F)c2F)nc2nc(N)sc12`, for which, in the series “in vitro [4]” (liver microsomes), the microsomal CLint worked out at 62 µL/min/mg. Further, the fraction unbound at 5 h in the series “in vitro [5]” (PPB) was 0.0149. The same molecule had a hepatocyte CLint in “in vitro [2]” of 5.16 µL/min/1e6 cells.
In the series “in vitro [5]” (PPB), `Cc1ccc(-n2c(C)cc(/C=C3\SC(=O)NC3=O)c2C)cc1` gave a fraction unbound at 5 h of 0.0016. In “in vitro [2]”, this molecule registered a hepatocyte CLint of 17.8 µL/min/1e6 cells.
`O=C1CN=C(c2ccccc2Cl)c2cc([N+](=O)[O-])ccc2N1` [CLONAZEPAM] returned a solubility (thermodynamic) in the series “physchem [1]” of 240 µM (≈ 75.7 µg/mL). Moreover, in the series “in vitro [2]”, the hepatocyte CLint is 3.72 µL/min/1e6 cells. In “physchem [3]” (pH 7.4), this molecule had a logD of 3.72.
In turn, `CNc1ncnc2c(CNc3cc(NC(=O)c4ccc5c(c4)OCCO5)ccc3C)cccc12` had a thermodynamic solubility in “physchem [1]” of 9.3 µM (≈ 4.24 µg/mL). In the series “in vitro [2]”, the hepatocyte CLint was determined as 41.7 µL/min/1e6 cells. This molecule gave a logD in “physchem [3]” (pH 7.4, LogD7.4) of 4.
Consider `N#Cc1cccc(-c2cccc(C(=O)O)c2)c1`, for which the hepatocyte CLint in “in vitro [2]” turned out to be 8.13 µL/min/1e6 cells. The molecule also displayed a logD in “physchem [3]” (pH 7.4, LogD7.4) of 0.3.
The matching figures for `C[C@H]1COCCN1c1nc(N2CCOC[C@@H]2C)c2ccc(-c3cccc(C(=O)NCCO)c3)nc2n1`: 10 µL/min/1e6 cells and 2.49.
Take `N#Cc1ccc(C(c2ccc(C#N)cc2)n2cncn2)cc1` [LETROZOLE]: the free fraction (fraction unbound) at 5 h in the series “in vitro [5]” (PPB) was 0.483. Also, in “in vitro [2]”, the hepatocyte CLint is under 3 µL/min/1e6 cells. This molecule showed a pH-dependent lipophilicity (logD) in “physchem [3]” (pH 7.4, LogD7.4) of 1.7.
In turn, `CC(c1cc2ccccc2s1)N(O)C(N)=O` (stereo not drawn) [ZILEUTON] gave a thermodynamic solubility in the series “physchem [1]” of 436 µM (≈ 103 µg/mL). In “in vitro [2]”, this molecule registered a hepatocyte CLint of 7.76 µL/min/1e6 cells. This molecule also registered a logD in the series “physchem [3]” (pH 7.4, LogD7.4) of 2.05.
The molecule `CCOc1cc(-c2cccc3c(=O)cc(N4CCOCC4)oc23)ccc1NC(=O)CN1CCOCC1` displayed a solubility (thermodynamic) in the series “physchem [1]” of 1.4 µM (≈ 0.691 µg/mL). The same molecule returned a hepatocyte CLint in the series “in vitro [2]” of 51.3 µL/min/1e6 cells. Moreover, in “physchem [3]” (pH 7.4, LogD7.4), the logD is 2.8.
Molecule `C=CCOc1cc(-c2cccc3c(=O)cc(N4CCOCC4)oc23)ccc1NC(=O)CN1CCOCC1` came in with a thermodynamic solubility in the series “physchem [1]” of 4.7 µM (≈ 2.38 µg/mL). The hepatocyte CLint in “in vitro [2]” was found to be 83.2 µL/min/1e6 cells. Further, the logD in the series “physchem [3]” (pH 7.4, LogD7.4) was determined as 3.
Regarding `COc1cc(N2CC3CNCC(C2)O3)ccc1Nc1ncc(Cl)c(-c2cnc3ccccn23)n1`, the solubility (thermodynamic) in “physchem [1]” turned out to be 25.1 µM (≈ 12 µg/mL). Further, the hepatocyte CLint in “in vitro [2]” worked out at 13.8 µL/min/1e6 cells.
In turn, `COc1cc(C(CO)CO)ccc1Nc1ncc(Cl)c(-c2cnc3ccccn23)n1` had a thermodynamic solubility in “physchem [1]” of 6.8 µM (≈ 2.9 µg/mL). Also, the hepatocyte CLint in the series “in vitro [2]” was 19.9 µL/min/1e6 cells. This molecule yielded a logD in “physchem [3]” (pH 7.4, LogD7.4) of 3.1.
In the series “in vitro [6]”, `C[C@@H]1CN(C(=O)N[C@H](Cc2ccc(F)cc2)C(=O)N2CCC(C(=O)NC(C)(C)C)(C3CCCCC3)CC2)C[C@H](C)N1` showed a fraction unbound at 5 h of 0.0872. This molecule displayed a hepatocyte CLint in “in vitro [2]” of 10.7 µL/min/1e6 cells.
Consider `O=C(NCc1ccc(OC(F)(F)F)cc1)C1c2ccccc2C(=O)N1CC1CC(F)(F)C1` (stereo not drawn), for which the hepatocyte CLint in the series “in vitro [2]” was 10 µL/min/1e6 cells. The logD in the series “physchem [3]” (pH 7.4, LogD7.4) came out at 3.9.
The matching figures for `N=C(N)N1CCc2ccccc2C1` [DEBRISOQUIN]: 3.98 µL/min/1e6 cells and -1.01.
In “physchem [1]”, `O=C(CN1CCOCC1)Nc1ccc(-c2cccc3c(=O)cc(N4CCOCC4)oc23)cc1O` had a thermodynamic solubility of 7.2 µM (≈ 3.35 µg/mL). Also, the hepatocyte CLint in “in vitro [2]” came to 18.6 µL/min/1e6 cells. In the series “physchem [3]” (pH 7.4, LogD7.4), this molecule returned a logD of 2.4.
In “in vitro [6]”, `CCCN1CCCC[C@H]1C(=O)Nc1c(C)cccc1C` [ROPIVACAINE] showed a fraction unbound at 5 h of 0.511. The molecule also registered a hepatocyte CLint in the series “in vitro [2]” of 15.5 µL/min/1e6 cells.
On to `CNC(=O)c1ccccc1Nc1nc(Nc2ccc(N3CCOCC3)cc2OC)ncc1Cl`, for which the solubility (thermodynamic) in the series “physchem [1]” is 0.4 µM (≈ 0.188 µg/mL). In “in vitro [2]”, this molecule returned a hepatocyte CLint of 16.2 µL/min/1e6 cells.
Consider `CC#C[C@]1(O)CC[C@H]2[C@@H]3CCC4=CC(=O)CCC4=C3[C@@H](c3ccc(N(C)C)cc3)C[C@@]21C` [MIFEPRISTONE], for which, in the series “in vitro [4]” (liver microsomes), the microsomal CLint worked out at 79 µL/min/mg. Further, the thermodynamic solubility in the series “physchem [1]” was 1.9 µM (≈ 0.816 µg/mL). Also, the fraction unbound at 5 h in “in vitro [5]” (PPB) was 0.0015. In “in vitro [2]”, this molecule displayed an intrinsic metabolic clearance (hepatocyte CLint) of 26.9 µL/min/1e6 cells.
On to `NC(=O)c1ccn2c(-c3ccccc3)c(-c3ccc(C4(N)CCC4)cc3)nc2c1`, for which the solubility (thermodynamic) in “physchem [1]” was determined as 112 µM (≈ 42.9 µg/mL). This molecule also had a hepatocyte CLint in “in vitro [2]” of 3.72 µL/min/1e6 cells.
In “in vitro [6]”, `CCC1(C2=NCCN2)Cc2ccccc2O1` (stereo not drawn) [EFAROXAN] showed a fraction unbound at 5 h of 0.76. In addition, the hepatocyte CLint in “in vitro [2]” is under 3 µL/min/1e6 cells.
In turn, `CC(C)c1cc(C(=O)N2Cc3ccc(CN4CCN(C)CC4)cc3C2)c(O)cc1O` [ONALESPIB] returned a solubility (thermodynamic) in the series “physchem [1]” of 93.3 µM (≈ 38.2 µg/mL). In “in vitro [2]”, this molecule yielded an intrinsic clearance (hepatocyte CLint) of 23.4 µL/min/1e6 cells. In the series “physchem [3]” (pH 7.4, LogD7.4), this molecule returned a logD of 2.5.
Take `CCC1=C(C)CN(C(=O)NCCc2ccc(S(=O)(=O)NC(=O)N[C@H]3CC[C@H](C)CC3)cc2)C1=O` [GLIMEPIRIDE]: the hepatocyte CLint in the series “in vitro [2]” was 23.2 µL/min/1e6 cells. In the series “physchem [3]” (pH 7.4, LogD7.4), this molecule yielded a logD of 1.73.
The matching figures for `CCN(C(=O)c1ccc(-c2ccc(Cl)cc2)o1)c1ccc(N2CCNCC2)cc1`: under 3 µL/min/1e6 cells and 3.3.
In the case of `Cc1ccc2c(c1)c(Sc1ccc(S(C)(=O)=O)cc1)c(C)n2CC(=O)O`, in “in vitro [4]” (liver microsomes), the microsomal CLint is under 3 µL/min/mg. The fraction unbound at 5 h in the series “in vitro [5]” (PPB) was 0.0081. In addition, in “in vitro [2]”, the hepatocyte CLint is under 3 µL/min/1e6 cells. Further, the logD in the series “physchem [3]” (pH 7.4, LogD7.4) is -0.08.
Turning to `COCCOc1nc(N)c2[nH]c(=O)n(Cc3cccc(CC(=O)OC)c3)c2n1`, in “physchem [1]”, the thermodynamic solubility stood at 21.9 µM (≈ 8.48 µg/mL). In addition, the hepatocyte CLint in the series “in vitro [2]” is 125 µL/min/1e6 cells. In addition, in “physchem [3]” (pH 7.4, LogD7.4), the logD was 1.86.
For `Cn1cc(C2=C(c3cn(C4CCN(Cc5ccccn5)CC4)c4ccccc34)C(=O)NC2=O)c2ccccc21` [ENZASTAURIN], the solubility (thermodynamic) in “physchem [1]” is 0.8 µM (≈ 0.412 µg/mL). Also, the fraction unbound at 5 h in “in vitro [5]” is 0.0017. This molecule also returned a hepatocyte CLint in the series “in vitro [2]” of 6 µL/min/1e6 cells.
Take `O=S(=O)(Nc1ccc(C(F)(F)F)cc1)c1ccc2sc(CO)nc2c1`: the fraction unbound at 5 h in the series “in vitro [5]” (PPB) was 0.0027. The molecule further had a hepatocyte CLint in the series “in vitro [2]” of 15.5 µL/min/1e6 cells.
As to `CC(C)Oc1cc(-c2cccc3c(=O)cc(N4CCOCC4)oc23)ccc1NC(=O)CN1CCOCC1`, the thermodynamic solubility in “physchem [1]” worked out at 4 µM (≈ 2.03 µg/mL). The molecule also showed a hepatocyte CLint in “in vitro [2]” of 87.1 µL/min/1e6 cells. Further, the logD in the series “physchem [3]” (pH 7.4, LogD7.4) was found to be 3.
Molecule `Cc1c(Oc2ccc(Cl)cc2)c2c(NS(C)(=O)=O)cccc2n1CC(=O)O` gave a microsomal CLint in the series “in vitro [4]” (microsomes) of under 3 µL/min/mg. This molecule had a fraction unbound at 5 h in “in vitro [5]” (PPB) of 0.0374. The hepatocyte CLint in “in vitro [2]” is under 3 µL/min/1e6 cells. This molecule also showed a logD in “physchem [3]” (pH 7.4, LogD7.4) of -0.98.
On to `CC(C)(CO)Nc1nc(SCc2cccc(F)c2F)nc2nc(N)sc12`, for which the hepatocyte CLint in the series “in vitro [2]” is 5.88 µL/min/1e6 cells. The same molecule came in with a logD in the series “physchem [3]” (pH 7.4, LogD7.4) of 3.37.
With `Nc1nc(-c2ccc(Cl)c(Cl)c2)c(-c2ccncc2)s1`, the fraction unbound at 5 h in the series “in vitro [5]” (PPB) is 0.0074. This molecule registered a hepatocyte CLint in “in vitro [2]” of 19.1 µL/min/1e6 cells.
`CC(C)(C)S(=O)(=O)N[C@H]1CC[C@H](C(=O)Nc2ccc(C(F)(F)F)cn2)CC1` showed a fraction unbound at 5 h in “in vitro [5]” (PPB) of 0.0409. This molecule had a hepatocyte CLint in the series “in vitro [2]” of 5.75 µL/min/1e6 cells.
In the series “physchem [1]”, `CC(C)COc1cc(-c2cccc3c(=O)cc(N4CCOCC4)oc23)ccc1NC(=O)CN1CCOCC1` registered a solubility (thermodynamic) of 3.5 µM (≈ 1.83 µg/mL). The same molecule yielded a hepatocyte CLint in “in vitro [2]” of over 150 µL/min/1e6 cells. For the same molecule, the logD in the series “physchem [3]” (pH 7.4, LogD7.4) is 3.8.
Regarding `N=c1c(S(=O)(=O)c2ccc(Cl)cc2)cc2c(=O)n3ccccc3nc2n1C1CCCC1`, in “in vitro [5]” (PPB), the fraction unbound at 5 h worked out at 0.5. The same molecule gave a hepatocyte CLint in the series “in vitro [2]” of 35.5 µL/min/1e6 cells.
In “in vitro [2]”, `NC1(c2ccc(-c3ncc4cccnc4c3-c3ccccc3)cc2)CCC1` came in with a hepatocyte CLint of 19.5 µL/min/1e6 cells.
Same read-out and setting: the value for `NC1(c2ccc(-c3c(-c4ccccc4)ccc4ccnn34)cc2)CCC1` was 10.2 µL/min/1e6 cells.
In the series “in vitro [2]”, `CC(C)C[C@H](CO)Nc1nc(SCc2ccccc2)nc2nc(N)sc12` gave a hepatocyte CLint of 20.4 µL/min/1e6 cells. In “physchem [3]” (pH 7.4, LogD7.4), this molecule returned a logD of 4.2.
